Assay results published in US11591355B2 (Peloton Therapeutics, Inc., priority 2017, dated 2023).

Legend:
[1] = target: T1, Human CD73 (Homo sapiens, UniProt P21589); assay: CD73 Enzyme Assay; type: biochemical; conditions: 0.25 nM hCD73, 25 μM AMP, kinetic read at 360 nm; read-out: CD73 Enzyme Assay IC50
T1 construct: purchased R&D Systems; host or cells: CHO cells
T1 sequence (P21589 27-549): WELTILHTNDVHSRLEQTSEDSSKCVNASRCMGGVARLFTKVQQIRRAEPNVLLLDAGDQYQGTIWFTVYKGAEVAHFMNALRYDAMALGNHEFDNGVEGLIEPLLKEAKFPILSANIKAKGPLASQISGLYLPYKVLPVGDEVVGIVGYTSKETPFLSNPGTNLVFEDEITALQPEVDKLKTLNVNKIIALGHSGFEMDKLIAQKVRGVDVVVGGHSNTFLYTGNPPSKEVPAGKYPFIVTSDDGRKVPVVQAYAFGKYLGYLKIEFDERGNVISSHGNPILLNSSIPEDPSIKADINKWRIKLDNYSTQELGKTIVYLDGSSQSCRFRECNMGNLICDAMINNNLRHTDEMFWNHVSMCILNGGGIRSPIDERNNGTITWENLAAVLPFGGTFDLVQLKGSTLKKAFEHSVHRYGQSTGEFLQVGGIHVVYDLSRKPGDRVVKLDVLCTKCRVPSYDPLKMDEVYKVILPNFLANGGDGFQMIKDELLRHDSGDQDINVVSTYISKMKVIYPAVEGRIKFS

[2] = target: T2, CD73 on U138 human neuroglioma cells (Homo sapiens, UniProt P21589); assay: CD73 Cell-Based Assay; conditions: U138 cells, AMP substrate, 2 hours at 37° C., inorganic phosphate by malachite green
T2 construct: U138 cells were obtained from ATCC and cultured in DMEM with 10% FBS; host or cells: U138 human neuroglioma cells
T2 sequence (P21589 27-549): T1 sequence (P21589 27-549)
Outline: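 Whole U138 cells washed free of phosphate were incubated with 200 μM AMP (mixture concentration before equal-volume addition) plus compound in HEPES-buffered saline, pH 7.4, for 2 h at 37 °C, 5% CO2. Adenosine-forming activity read as inorganic phosphate released into supernatant by malachite green.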

IC50 [1]	IC50 [2]	SMILES
< 10 nM	< 10 nM	C[C@@H](Nc1nc(C#N)nc2c1ccn2[C@@H]1O[C@H](COCP(=O)(O)O)[C@@H](O)[C@H]1O)c1ccccc1F [Compound 88, [(2R,3S,4R,5R)-5-[2-cyano-4-[[(1R)-1-(2-fluorophenyl)ethyl]-amino]pyrrolo[2,3-d]-pyrimidin-7-yl]-3,4-dihydroxy-tetrahydro-furan-2-yl]methoxy-methylphosphonic acid]
< 10 nM	< 10 nM	C[C@@H](Nc1nc(Cl)nc2c1ccn2[C@@H]1O[C@H](COCP(=O)(O)O)[C@@H](O)[C@H]1O)c1ccc(C#N)cc1 [Compound 89, [(2R,3S,4R,5R)-5-[2-chloro-4-[[(1R)-1-(4-cyanophenyl)ethyl]-amino]pyrrolo[2,3-d]-pyrimidin-7-yl]-3,4-dihydroxy-tetrahydro-furan-2-yl]methoxy-methylphosphonic acid]
< 10 nM	< 10 nM	Cc1ccc([C@H](C)Nc2nc(Cl)nc3c2ccn3[C@@H]2O[C@H](COCP(=O)(O)O)[C@@H](O)[C@H]2O)cc1 [Compound 90, [(2R,3S,4R,5R)-5-[2-chloro-4-[[(1S)-1-(p-tolyl)ethyl]amino]-pyrrolo[2,3-d]-pyrimidin-7-yl]-3,4-dihydroxy-tetrahydro-furan-2-yl]methoxy-methylphosphonic acid]
< 10 nM	< 10 nM	Cc1ccc([C@H](C)Nc2nc(C#N)nc3c2ccn3[C@@H]2O[C@H](COCP(=O)(O)O)[C@@H](O)[C@H]2O)cc1 [Compound 91, [(2R,3S,4R,5R)-5-[2-cyano-4-[[(1S)-1-(p-tolyl)ethyl]amino]-pyrrolo[2,3-d]-pyrimidin-7-yl]-3,4-dihydroxy-tetrahydro-furan-2-yl]methoxy-methylphosphonic acid]
< 10 nM	< 10 nM	CC(C)Nc1nc(Cl)nc2c1ccn2[C@@H]1O[C@H](COCP(=O)(O)O)[C@@H](O)[C@H]1O [Compound 92, [(2R,3S,4R,5R)-5-[2-chloro-4-(isopropyl-amino)pyrrolo[2,3-d]-pyrimidin-7-yl]-3,4-dihydroxy-tetrahydro-furan-2-yl]methoxy-methylphosphonic acid]
< 10 nM	10 to 100 nM	CN(C)c1nc(Cl)nc2c1ccn2[C@@H]1O[C@H](COCP(=O)(O)O)[C@@H](O)[C@H]1O [Compound 93, [(2R,3S,4R,5R)-5-[2-chloro-4-(dimethyl-amino)pyrrolo[2,3-d]-pyrimidin-7-yl]-3,4-dihydroxy-tetrahydro-furan-2-yl]methoxy-methylphosphonic acid]
< 10 nM	< 10 nM	C[C@@H](Nc1nc(Cl)nc2c1ccn2[C@@H]1O[C@H](COCP(=O)(O)O)[C@@H](O)[C@H]1O)c1ccc(Cl)cc1 [Compound 94, [(2R,3S,4R,5R)-5-[2-chloro-4-[[(1R)-1-(4-chlorophenyl)ethyl]-amino]pyrrolo[2,3-d]-pyrimidin-7-yl]-3,4-dihydroxy-tetrahydro-furan-2-yl]methoxy-methylphosphonic acid]
10 to 100 nM	10 to 100 nM	C[C@@H](Nc1nc(C#N)nc2c1ccn2[C@@H]1O[C@H](COCP(=O)(O)O)[C@@H](O)[C@H]1O)c1ccc(C#N)cc1 [Compound 95, [(2R,3S,4R,5R)-5-[2-cyano-4-[[(1R)-1-(4-cyanophenyl)ethyl]-amino]pyrrolo[2,3-d]-pyrimidin-7-yl]-3,4-dihydroxy-tetrahydro-furan-2-yl]methoxy-methylphosphonic acid]
100 to 1000 nM	100 to 1000 nM	CNc1nc(Cl)nc2c1ccn2[C@@H]1O[C@H](COCP(=O)(O)O)[C@@H](O)[C@H]1O [Compound 96, [(2R,3S,4R,5R)-5-[2-chloro-4-(methyl-amino)pyrrolo[2,3-d]-pyrimidin-7-yl]-3,4-dihydroxy-tetrahydro-furan-2-yl]methoxy-methylphosphonic acid]
10 to 100 nM	< 10 nM	CC(C)Nc1nc(C#N)nc2c1ccn2[C@@H]1O[C@H](COCP(=O)(O)O)[C@@H](O)[C@H]1O [Compound 97, [(2R,3S,4R,5R)-5-[2-cyano-4-(isopropyl-amino)pyrrolo[2,3-d]-pyrimidin-7-yl]-3,4-dihydroxy-tetrahydro-furan-2-yl]methoxy-methylphosphonic acid]
10 to 100 nM	10 to 100 nM	CCNc1nc(Cl)nc2c1ccn2[C@@H]1O[C@H](COCP(=O)(O)O)[C@@H](O)[C@H]1O [Compound 98, [(2R,3S,4R,5R)-5-[2-chloro-4-(ethylamino)-pyrrolo[2,3-d]-pyrimidin-7-yl]-3,4-dihydroxy-tetrahydro-furan-2-yl]methoxy-methylphosphonic acid]
10 to 100 nM	10 to 100 nM	O=P(O)(O)COC[C@H]1O[C@@H](n2ccc3c(NC4CCOCC4)nc(Cl)nc32)[C@H](O)[C@@H]1O [Compound 99, [(2R,3S,4R,5R)-5-[2-chloro-4-(tetrahydro-pyran-4-ylamino)-pyrrolo[2,3-d]-pyrimidin-7-yl]-3,4-dihydroxy-tetrahydro-furan-2-yl]methoxy-methylphosphonic acid]
10 to 100 nM	10 to 100 nM	O=P(O)(O)COC[C@H]1O[C@@H](n2ccc3c(N4CCOCC4)nc(Cl)nc32)[C@H](O)[C@@H]1O [Compound 100, [(2R,3S,4R,5R)-5-(2-chloro-4-morpholino-pyrrolo[2,3-d]-pyrimidin-7-yl)-3,4-dihydroxy-tetrahydro-furan-2-yl]methoxy-methylphosphonic acid]
< 10 nM	< 10 nM	O=P(O)(O)COC[C@H]1O[C@@H](n2ccc3c(NC4CCC(F)(F)C4)nc(Cl)nc32)[C@H](O)[C@@H]1O (stereo partly drawn) [Compound 101, [(2R,3S,4R,5R)-5-[2-chloro-4-[(3,3-difluoro-cyclopentyl)amino]-pyrrolo[2,3-d]-pyrimidin-7-yl]-3,4-dihydroxy-tetrahydro-furan-2-yl]methoxy-methylphosphonic acid]
< 10 nM	< 10 nM	O=P(O)(O)COC[C@H]1O[C@@H](n2ccc3c(NC4CC5CC5C4)nc(Cl)nc32)[C@H](O)[C@@H]1O (stereo partly drawn) [Compound 102, [(2R,3S,4R,5R)-5-[4-(3-bicyclo[3.1.0]-hexanylamino)-2-chloro-pyrrolo[2,3-d]-pyrimidin-7-yl]-3,4-dihydroxy-tetrahydro-furan-2-yl]methoxy-methylphosphonic acid]
< 10 nM	< 10 nM	O=P(O)(O)COC[C@H]1O[C@@H](n2ccc3c(N4CC5CCCC5C4)nc(Cl)nc32)[C@H](O)[C@@H]1O (stereo partly drawn) [Compound 103, [(2R,3S,4R,5R)-5-[4-(3,3a,4,5,6,6a-hexa-hydro-1H-cyclopenta-[c]pyrrol-2-yl)-2-chloro-pyrrolo[2,3-d]-pyrimidin-7-yl]-3,4-dihydroxy-tetrahydro-furan-2-yl]methoxy-methylphosphonic acid]
10 to 100 nM	< 10 nM	C[C@H](c1ccccc1)N(C)c1nc(Cl)nc2c1ncn2[C@@H]1O[C@H](COCP(=O)(O)O)[C@@H](O)[C@H]1O [Compound 104]
< 10 nM	< 10 nM	O=P(O)(O)COC[C@H]1O[C@@H](n2ccc3c(N4CC5CC5C4)nc(Cl)nc32)[C@H](O)[C@@H]1O (stereo partly drawn) [Compound 105, [(2R,3S,4R,5R)-5-[4-(3-azabicyclo[3.1.0]-hexan-3-yl)-2-chloro-pyrrolo[2,3-d]-pyrimidin-7-yl]-3,4-dihydroxy-tetrahydro-furan-2-yl]methoxy-methylphosphonic acid]
< 10 nM	< 10 nM	C[C@H](Nc1nc(Cl)nc2c1ccn2[C@@H]1O[C@H](COCP(=O)(O)O)[C@@H](O)[C@H]1O)c1ccc(C(F)(F)F)cc1 [Compound 106, [(2R,3S,4R,5R)-5-[2-chloro-4-[[(1S)-1-[4-(trifluoromethyl)-phenyl]ethyl]amino]-pyrrolo[2,3-d]-pyrimidin-7-yl]-3,4-dihydroxy-tetrahydro-furan-2-yl]methoxy-methylphosphonic acid]
10 to 100 nM	10 to 100 nM	CN(C)c1nc(C#N)nc2c1ccn2[C@@H]1O[C@H](COCP(=O)(O)O)[C@@H](O)[C@H]1O [Compound 107, [(2R,3S,4R,5R)-5-[2-cyano-4-(dimethyl-amino)pyrrolo[2,3-d]-pyrimidin-7-yl]-3,4-dihydroxy-tetrahydro-furan-2-yl]methoxy-methylphosphonic acid]
10 to 100 nM	10 to 100 nM	CCNc1nc(C#N)nc2c1ccn2[C@@H]1O[C@H](COCP(=O)(O)O)[C@@H](O)[C@H]1O [Compound 108, [(2R,3S,4R,5R)-5-[2-cyano-4-(ethylamino)-pyrrolo[2,3-d]-pyrimidin-7-yl]-3,4-dihydroxy-tetrahydro-furan-2-yl]methoxy-methylphosphonic acid]
< 10 nM	< 10 nM	O=P(O)(O)COC[C@H]1O[C@@H](n2ccc3c(NC4CCC4)nc(Cl)nc32)[C@H](O)[C@@H]1O [Compound 109, [(2R,3S,4R,5R)-5-[2-chloro-4-(cyclobutyl-amino)pyrrolo[2,3-d]-pyrimidin-7-yl]-3,4-dihydroxy-tetrahydro-furan-2-yl]methoxy-methylphosphonic acid]
